Patent publication US11981646B1, “3-(4-methoxyphenyl)-5-{[5-methyl-2-(propan-2-yl)phenoxy]methyl}-1,2,4-oxadiazole as an antitumor and antimicrobial compound” (King Faisal University, priority 2023, dated 2024)

Assays:
[1] = system: human osteosarcoma cells (MG-63); experiment: Assessment of cytotoxicity by SRB assay, MG-63 cells; format: cell-based; conditions: 0.01 μM to 100 μM for 72 h
Experimental: (§1) Human prostate cancer cells (PC3) and human osteosarcoma cells (MG-63) were obtained from Nawah Scientific Inc. (Mokatam, Cairo, Egypt) and cultured in DMEM (Dulbecco's modified eagle's medium), Gibco, USA, supplemented with fetal bovine serum (FBS) at a concentration of 10% and 100 U/mL of penicillin and streptomycin (PS). The Cells were incubated at 37° C. in a humidified environment that contained 5% CO2. Cells were seeded in 96-well plates as aliquots of 100 μL cell suspension and incubated in a complete media for 24 h. Afterward, cells were treated with 3-(4-methoxyphenyl)-5-{[5-methyl-2-(propan-2-yl)phenoxy]methyl}-1,2,4-oxadiazole at diverse concentrations ranging from 0.01 μM to 100 μM for 72 h. Then, cells were fixed at 4° C. for one hour with 150 μL of 10% trichloroacetic acid (TCA). After washing the cells five times with distilled water, 70 μL of sulforhodamine (SRB) solution (0.4% w/v) was added and incubated for 10 min at room temperature in a dark place. […] Then, 150 μL of Tris pH 10.5 (10 mM) was added, and the absorbance was measured at 540 nm using a BMG LABTECH®-FLUOstar Omega microplate reader (Ortenberg, Germany). Half maximal inhibitory concentrations (IC50) values were calculated for each experiment using GraphPad Prism 6 software. […] The inhibition was calculated using the following equation: Inhibition %=100−Average Viability

[2] = system: human prostate cancer cells (PC3); experiment: Assessment of cytotoxicity by SRB assay, PC3 cells; format: cell-based; conditions: 0.01 μM to 100 μM for 72 h
Experimental: as §1

Question: `COc1ccc(-c2noc(COc3cc(C)ccc3C(C)C)n2)cc1` [3-(4-methoxyphenyl)-5-{[5-methyl-2-(propan-2-yl)phenoxy]methyl}-1,2,4-oxadiazole] was tested. Which “antiproliferative activity against osteosarcoma (MG-63) cells” value [1] did it give?
Answer: Its value is “excellent antiproliferative activities”.

Question: And the “antiproliferative activity against prostate cancer cells (PC3)” value [2]?
Answer: Its value is “excellent antiproliferative activities”.
